{"source": "patent US4038384A", "about": "“Antibiotic A-28086 and process for production thereof” (Eli Lilly and Company, priority 1975, dated 1977)", "key": {"[1]": {"assay": "Electrometric titration in 80% aqueous dimethylformamide (pKa)"}, "[2]": {"tested_on": "Staphylococcus aureus (H-Heatley) NRRL B-314", "assay": "Turbidometric assay (Autoturb), relative gram-positive activity", "type": "cell-based", "settings": "relative to A-28086 factor A standard = 1; nutrient broth pH 7, 4 hours, 37° C.", "procedure": "The C2 -C6 -acyl ester derivatives of A-28086 factor A also have antibacterial and antifungal activity. In one aspect, these derivatives have increased gram-positive activity. The relative gram-positive activities of certain of these derivatives were compared with the activity of factor A. The compounds were tested by turbidometric assay on a semiautomated system (Autoturb microbiological assay system, Elanco) described by N. R. Kuzel and F. W. Kavanaugh in J. Pharmaceut. Sci. 60 (5), 764 and 767 (1971). In testing the A-28086 antibiotics, the following test parameters were used: Staphylococcus aureus (H-Heatley) NRRL B-314 in a nutrient broth medium (pH 7), incubated for 4 hours at 37° C. Test samples and the standard were dissolved in methanol-water (10:90). The standard, A-28086 factor A, was presented to the Autoturb carrousel at concentrations of 2, 3, 4, and 5 mcg/ml. Test compounds were diluted to contain approximately 3 or 4 mcg of activity per ml, as presented to the carrousel. The relative activities of test compounds, as compared to that of the standard, are given below: […]"}, "rumen flora": {"tested_on": "rumen flora", "assay": "In vitro rumen fluid test, volatile fatty acid production", "type": "cell-based, steer", "settings": "1 ppm in rumen fluid, 16 hours, 38° C.", "text": "As discussed hereinabove, efficiency of carbohydrate utilization in ruminants is increased by treatments which stimulate the animal's rumen flora to produce propionate compounds rather than acetate or butyrate compounds. The efficiency of feed use can be monitored by observing the production and concentration of propionate compounds in the rumen, using the following methods:\nRumen fluid is obtained from a steer with a surgically-installed fistula opening into the rumen. The steer is maintained on a high-grain ration. A sample of rumen fluid is strained through four layers of cheesecloth, and the filtrate is collected. The particulate matter retained by the cheesecloth is resuspended in enough physiological buffer to return it to the original volume of the rumen fluid, and this suspension is strained again. The buffer used has the following composition:\nThe two filtrates are combined and allowed to stand until particulate matter separates to the top. The clear layer is separated, diluted with the same buffer (1:1) and then adjusted to between pH 6.8 to 7.0.\nThe diluted rumen fluid (10 ml) is placed in a 25-ml flask with 40 mg of the above-described feed, an additional 1 mg of soybean protein, and the compound to be tested. Four replicate flasks are used per treatment. Two sets of four control flasks each are also employed. A zero-time control and an incubated 16-hour control are used. All test flasks are incubated for 16 hours at 38° C. […] The samples are allowed to settle, and the supernatants are analyzed by gas chromatography for propionate, acetate, and butyrate compounds."}, "[3]": {"tested_on": "E. necatrix and E. tenella", "assay": "Anticoccidial activity in chicks against mixed Eimeria species", "type": "in vivo, E. necatrix and E. tenella; broiler cockerels", "settings": "0.005% in feed", "text": "(§1) ^1 Four replicates, 5 broiler cockerels each."}, "[4]": {"assay": "Solubility in water and organic solvents", "type": "physicochemical", "settings": "nonpolar organic solvents such as hexane"}, "[5]": {"tested_on": "E. tenella, E. necatrix, E. maxima, E. brunetti, E. acervulina, and E. mivati", "assay": "Anticoccidial activity in chicks against mixed Eimeria species", "type": "in vivo", "settings": "0.01% in feed", "text": "as §1"}, "[6]": {"assay": "In vivo feed-utilization efficiency in sheep", "settings": "56 days"}, "Eimeria tenella": {"tested_on": "Eimeria tenella", "assay": "Anticoccidial activity in chicks against Eimeria tenella", "type": "in vivo, Eimeria tenella; chickens", "settings": "for Percent Weight Gain: normal controls 100"}, "ruminal propionic acid": {"tested_on": "ruminal propionic acid", "assay": "In vivo ruminal propionic acid concentration in fistulated steers", "settings": "100 mg/day, mean of five analyses in 14 days", "procedure": "The test reported in Table XII was conducted with mature fistulated steers weighing about 1,000 lbs. each. Two steers were fed a normal diet, and four steers in each treatment group were fed an identical diet to which A-28086 factor A had been added. To each aliquot (100 ml) of rumen fluid taken, 10 percent metaphosphoric acid (100 ml) was added. The samples were allowed to settle, and the supernatants were analyzed by gas chromatographic methods to determine propionic acid concentrations.\nThe results in Table XII are the mean percent increases in ruminal propionic acid concentration, averaged over five analyses in a 14-day treatment period. Controls had approximately 20 molar percent propionic acid."}, "[7]": {"assay": "General microbiological (antibacterial/antifungal) activity", "type": "cell-based", "settings": "in words"}}}
{"smiles": "CCC(C(=O)O)C1OC(C(C)C(O)C(C)C(=O)C(CC)C2OC3(C=CC(OC(C)=O)C4(CCC(C)(C5CCC(O)(CC)C(C)O5)O4)O3)C(C)CC2C)C(C)CC1C", "note": "(stereo not shown) [A-28086 factor A acetyl ester derivative, A-28086 factor A acetyl ester]", "values": [{"measurement": "pKa value of titratable group", "setting": "[1]", "result": 8.5}, {"measurement": "Relative G^+ Activity", "setting": "[2]", "result": 2.5}, {"measurement": "Ratio of Treated to Control, Molar % acetate", "setting": "rumen flora", "result": 0.79}, {"measurement": "Ratio of Treated to Control, Molar % butyrate", "setting": "rumen flora", "result": 0.76}]}
{"smiles": "CCCC(=O)OC1C=CC2(OC(C(CC)C(=O)C(C)C(O)C(C)C3OC(C(CC)C(=O)O)C(C)CC3C)C(C)CC2C)OC12CCC(C)(C1CCC(O)(CC)C(C)O1)O2", "note": "(stereo not shown) [A-28086 factor A n-butyryl ester derivative]", "values": [{"measurement": "Relative G^+ Activity", "setting": "[2]", "result": 8}, {"measurement": "Ratio of Treated to Control, Molar % acetate", "setting": "rumen flora", "result": 0.91}, {"measurement": "Ratio of Treated to Control, Molar % butyrate", "setting": "rumen flora", "result": 0.81}]}
{"smiles": "CCCCCC(=O)OC1C=CC2(OC(C(CC)C(=O)C(C)C(O)C(C)C3OC(C(CC)C(=O)O)C(C)CC3C)C(C)CC2C)OC12CCC(C)(C1CCC(O)(CC)C(C)O1)O2", "note": "(stereo not shown) [A-28086 factor A n-caproyl ester derivative]", "values": [{"measurement": "Relative G^+ Activity", "setting": "[2]", "result": 20}, {"measurement": "Ratio of Treated to Control, Molar % acetate", "setting": "rumen flora", "result": 0.86}, {"measurement": "Ratio of Treated to Control, Molar % butyrate", "setting": "rumen flora", "result": 0.97}, {"measurement": "Ratio of Treated to Control, Total VFA mM/l", "setting": "rumen flora", "result": 0.99}]}
{"smiles": "CCCCC(=O)OC1C=CC2(OC(C(CC)C(=O)C(C)C(O)C(C)C3OC(C(CC)C(=O)O)C(C)CC3C)C(C)CC2C)OC12CCC(C)(C1CCC(O)(CC)C(C)O1)O2", "note": "(stereo not shown) [A-28086 factor A n-valeryl ester derivative]", "values": [{"measurement": "Relative G^+ Activity", "setting": "[2]", "result": 14}, {"measurement": "Ratio of Treated to Control, Molar % acetate", "setting": "rumen flora", "result": 0.92}, {"measurement": "Ratio of Treated to Control, Molar % butyrate", "setting": "rumen flora", "result": 0.79}]}
{"smiles": "CCC(=O)OC1C=CC2(OC(C(CC)C(=O)C(C)C(O)C(C)C3OC(C(CC)C(=O)O)C(C)CC3C)C(C)CC2C)OC12CCC(C)(C1CCC(O)(CC)C(C)O1)O2", "note": "(stereo not shown) [A-28086 factor A propionyl ester derivative]", "values": [{"measurement": "Relative G^+ Activity", "setting": "[2]", "result": 7}, {"measurement": "Ratio of Treated to Control, Molar % acetate", "setting": "rumen flora", "result": 0.90}, {"measurement": "Ratio of Treated to Control, Molar % butyrate", "setting": "rumen flora", "result": 0.68}]}
{"smiles": "CCC(C(=O)O)C1OC(C(C)C(O)C(C)C(=O)C(CC)C2OC3(C=CC(O)C4(CCC(C)(C5CCC(O)(CC)C(C)O5)O4)O3)C(C)CC2C)C(C)CC1C", "note": "(stereo not shown) [A-28086 factor A]", "values": [{"measurement": "pKa value of titratable group", "setting": "[1]", "result": 7.9}, {"measurement": "Cecal Lesions Percent Reducton", "setting": "[3]", "result": 50, "unit": "%"}, {"measurement": "solubility in nonpolar organic solvents", "setting": "[4]", "result": "only slightly soluble"}, {"measurement": "Cecal Lesions Percent Reducton", "setting": "[5]", "result": 73, "unit": "%"}, {"measurement": "Feed/Grain", "setting": "[6]; 9 g per ton of feed", "result": 7.40}, {"measurement": "Feed/Grain", "setting": "[6]; 18 g per ton of feed", "result": 8.31}, {"measurement": "Percent Reduction in Lesion Score", "setting": "Eimeria tenella; 0.0025% in feed, second group", "result": 0, "unit": "%"}, {"measurement": "Percent Mortality", "setting": "Eimeria tenella; 0.0025% in feed, second group (20 chickens)", "result": 10, "unit": "%"}, {"measurement": "Percent Weight Gain", "setting": "Eimeria tenella; 0.0025% in feed, second group", "result": 87, "unit": "%"}, {"measurement": "Average Lesion Score", "setting": "Eimeria tenella; 0.005% in feed, second group", "result": 2.8}, {"measurement": "Percent Reduction in Lesion Score", "setting": "Eimeria tenella; 0.005% in feed, second group", "result": 27, "unit": "%"}, {"measurement": "Percent Mortality", "setting": "Eimeria tenella; 0.005% in feed, second group (20 chickens)", "result": 0, "unit": "%"}, {"measurement": "Percent Weight Gain", "setting": "Eimeria tenella; 0.005% in feed, second group", "result": 91, "unit": "%"}, {"measurement": "Average Lesion Score", "setting": "Eimeria tenella; 0.01% in feed, first group", "result": 0.2}, {"measurement": "Percent Reduction in Lesion Score", "setting": "Eimeria tenella; 0.01% in feed, first group", "result": 95, "unit": "%"}, {"measurement": "Percent Mortality", "setting": "Eimeria tenella; 0.01% in feed, first group (10 chickens)", "result": 0, "unit": "%"}, {"measurement": "Percent Weight Gain", "setting": "Eimeria tenella; 0.01% in feed, first group", "result": 94, "unit": "%"}, {"measurement": "Average Lesion Score", "setting": "Eimeria tenella; 0.01% in feed, second group", "result": 0}, {"measurement": "Percent Reduction in Lesion Score", "setting": "Eimeria tenella; 0.01% in feed, second group", "result": 100, "unit": "%"}, {"measurement": "Percent Mortality", "setting": "Eimeria tenella; 0.01% in feed, second group (20 chickens)", "result": 0, "unit": "%"}, {"measurement": "Percent Weight Gain", "setting": "Eimeria tenella; 0.01% in feed, second group", "result": 96, "unit": "%"}, {"measurement": "Average Lesion Score", "setting": "Eimeria tenella; 0.02% in feed, first group", "result": 0.2}, {"measurement": "Percent Reduction in Lesion Score", "setting": "Eimeria tenella; 0.02% in feed, first group", "result": 95, "unit": "%"}, {"measurement": "Percent Mortality", "setting": "Eimeria tenella; 0.02% in feed, first group (10 chickens)", "result": 0, "unit": "%"}, {"measurement": "Percent Weight Gain", "setting": "Eimeria tenella; 0.02% in feed, first group", "result": 82, "unit": "%"}, {"measurement": "Average Lesion Score", "setting": "Eimeria tenella; 0.02% in feed, second group", "result": 0}, {"measurement": "Percent Reduction in Lesion Score", "setting": "Eimeria tenella; 0.02% in feed, second group", "result": 100, "unit": "%"}, {"measurement": "Percent Mortality", "setting": "Eimeria tenella; 0.02% in feed, second group (20 chickens)", "result": 0, "unit": "%"}, {"measurement": "Percent Weight Gain", "setting": "Eimeria tenella; 0.02% in feed, second group", "result": 84, "unit": "%"}, {"measurement": "Average Lesion Score", "setting": "Eimeria tenella; 0.04% in feed, first group", "result": 0}, {"measurement": "Percent Reduction in Lesion Score", "setting": "Eimeria tenella; 0.04% in feed, first group", "result": 100, "unit": "%"}, {"measurement": "Percent Mortality", "setting": "Eimeria tenella; 0.04% in feed, first group (10 chickens)", "result": 0, "unit": "%"}, {"measurement": "Percent Weight Gain", "setting": "Eimeria tenella; 0.04% in feed, first group", "result": 50, "unit": "%"}, {"measurement": "Relative G^+ Activity", "setting": "[2]", "result": 1}, {"measurement": "Percent Increase Over Control in ruminal propionic acid concentration", "setting": "ruminal propionic acid", "result": 54.0, "unit": "%"}, {"measurement": "Ratio of Treated to Control, Molar % acetate", "setting": "rumen flora", "result": 0.94}, {"measurement": "Ratio of Treated to Control, Molar % butyrate", "setting": "rumen flora", "result": 0.87}]}
{"smiles": "CCC(C(=O)OC)C1OC(C(C)C(O)C(C)C(=O)C(CC)C2OC3(C=CC(O)C4(CCC(C)(C5CCC(O)(CC)C(C)O5)O4)O3)C(C)CC2C)C(C)CC1C", "note": "(stereo not shown) [A-28086-I]", "values": [{"measurement": "microbiological activity", "setting": "[7]", "result": "not microbiologically active"}]}
